{"source": "patent US11578079B2", "about": "“SUMO inhibitor compounds and uses thereof” (CITY OF HOPE, priority 2018, dated 2023)"}
{"target": "T1, SUMO (Homo sapiens, UniProt Q9UBT2)", "T1 sequence (Q9UBT2 1-640)": "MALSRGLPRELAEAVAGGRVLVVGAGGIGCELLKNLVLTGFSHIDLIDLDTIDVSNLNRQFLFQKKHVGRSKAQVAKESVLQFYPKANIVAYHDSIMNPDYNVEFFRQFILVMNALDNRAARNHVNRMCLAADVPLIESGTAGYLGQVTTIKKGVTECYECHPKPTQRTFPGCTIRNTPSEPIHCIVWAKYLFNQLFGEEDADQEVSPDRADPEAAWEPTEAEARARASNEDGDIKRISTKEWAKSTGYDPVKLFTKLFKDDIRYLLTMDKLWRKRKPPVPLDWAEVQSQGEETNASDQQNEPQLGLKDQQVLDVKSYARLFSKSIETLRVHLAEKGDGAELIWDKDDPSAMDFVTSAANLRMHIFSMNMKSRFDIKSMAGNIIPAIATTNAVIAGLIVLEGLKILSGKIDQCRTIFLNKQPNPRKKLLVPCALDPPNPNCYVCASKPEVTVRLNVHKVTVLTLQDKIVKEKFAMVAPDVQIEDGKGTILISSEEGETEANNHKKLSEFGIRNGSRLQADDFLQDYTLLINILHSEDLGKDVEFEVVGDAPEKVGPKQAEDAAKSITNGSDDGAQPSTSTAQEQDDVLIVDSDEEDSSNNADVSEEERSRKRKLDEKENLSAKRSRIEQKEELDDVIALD", "T1 sequence (Q9UBE0 1-346 partner)": "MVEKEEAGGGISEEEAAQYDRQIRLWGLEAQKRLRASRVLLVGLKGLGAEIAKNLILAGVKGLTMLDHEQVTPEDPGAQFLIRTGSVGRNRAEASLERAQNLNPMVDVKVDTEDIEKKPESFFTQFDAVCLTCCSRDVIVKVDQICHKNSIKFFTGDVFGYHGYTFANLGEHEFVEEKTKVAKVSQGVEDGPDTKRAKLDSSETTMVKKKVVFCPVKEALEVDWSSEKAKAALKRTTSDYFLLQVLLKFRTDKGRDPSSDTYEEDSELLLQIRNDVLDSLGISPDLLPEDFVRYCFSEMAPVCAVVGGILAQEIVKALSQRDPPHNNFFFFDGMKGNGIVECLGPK", "assay": "SUMO activity (Table I, biological activities)", "assay_type": "biochemical", "parameters": "key: + (less active); ++ (active); +++ (most active)"}
{"smiles": "COC(=O)C1=C(C(=O)Nc2ccc(C)c(F)c2)C2C=CC1(C1OCCO1)O2", "note": "(stereo not drawn) [Compound 485]", "SUMO": "+"}
{"smiles": "COC(=O)C1=C(C(=O)OC)C2(C(Oc3ccccc3)c3ccc(CN4CCOCC4)cc3)C=CC1O2", "note": "(stereo not drawn) [Compound 495]", "SUMO": "++"}
{"smiles": "COC(=O)C1=C(C(=O)OC)C2(C(Cc3ccccc3)Oc3cccc(CO)c3)C=CC1O2", "note": "(stereo not drawn) [Compound 520]", "SUMO": "++"}
{"smiles": "Cc1ccc(S(=O)(=O)C2=CC3(C(Cc4ccccc4)Nc4ccccc4)C=CC2(C)O3)cc1", "note": "(stereo not drawn) [Compound 532]", "SUMO": "+"}
{"smiles": "COC(=O)C1=C(C(=O)NCCNC(=O)OC(C)(C)C)C2C=CC1(C(Cc1ccccc1)Nc1ccc(F)cc1)O2", "note": "(stereo not drawn) [Compound 539]", "SUMO": "++"}
{"smiles": "CCOC(=O)C1=C(C(=O)Nc2cccc(F)c2C)C2C=CC1(C(Nc1ccccc1)c1ccc(CN3CCOCC3)cc1)O2", "note": "(stereo not drawn) [Compound 603]", "SUMO": "++"}
{"smiles": "COC(=O)C1=C(C(=O)OC)C2(C(Cc3ccc(C)cc3)Nc3ccccc3)C=CC1O2", "note": "(stereo not drawn) [Compound 627]", "SUMO": "+++"}
{"smiles": "CCC12C=CC(C(Cc3ccccc3)Nc3ccccc3)(O1)C(C(=O)OC)=C2C(=O)OC", "note": "(stereo not drawn) [Compound 629]", "SUMO": "++"}
{"smiles": "COC(=O)C1=C(C(=O)OC)C2(C(Cc3ccc4ccccc4c3)Nc3ccccc3)C=CC1O2", "note": "(stereo not drawn) [Compound 630]", "SUMO": "+++"}
{"smiles": "COC(=O)C1=C(C(=O)OC)C2(C(Nc3ccccc3)c3ccc4ccccc4c3)C=CC1O2", "note": "(stereo not drawn) [Compound 632]", "SUMO": "+++"}
{"smiles": "COC(=O)C1=C(C(=O)OC)C2(C(Cc3ccc(OC)cc3)Nc3ccccc3)C=CC1O2", "note": "(stereo not drawn) [Compound 633]", "SUMO": "+++"}
{"smiles": "COC(=O)C1=C(C(=O)OC)C2(C(Cc3cccc4ccccc34)Nc3ccccc3)C=CC1O2", "note": "(stereo not drawn) [Compound 635]", "SUMO": "++"}
{"smiles": "COC(=O)C1=C(C(=O)OC)C2(C(Cc3cccc(OC)c3)Nc3ccccc3)C=CC1O2", "note": "(stereo not drawn) [Compound 636]", "SUMO": "+++"}
{"smiles": "COC(=O)C1=C(C(=O)OC)C2(C(Nc3ccccc3)c3cccc4ccccc34)C=CC1O2", "note": "(stereo not drawn) [Compound 637]", "SUMO": "+++"}
{"smiles": "COC(=O)C1=C(C(=O)OC)C2(C(Cc3ccc(F)cc3F)Nc3ccccc3)C=CC1O2", "note": "(stereo not drawn) [Compound 639]", "SUMO": "++"}
{"smiles": "COC(=O)C1=C(C(=O)OC)C2(C(Cc3ccccc3Cl)Nc3ccccc3)C=CC1O2", "note": "(stereo not drawn) [Compound 640]", "SUMO": "+++"}
{"smiles": "COC(=O)C1=C(C(=O)OC)C2(C(Cc3ccc(Cl)cc3Cl)Nc3ccccc3)C=CC1O2", "note": "(stereo not drawn) [Compound 641]", "SUMO": "+++"}
{"smiles": "COC(=O)C1=C(C(=O)OC)C2(C(Cc3ccc(Cl)c(Cl)c3)Nc3ccccc3)C=CC1O2", "note": "(stereo not drawn) [Compound 642]", "SUMO": "+++"}
{"smiles": "COC(=O)C1=C(C(=O)OC)C2(C(Cc3ccc(C#N)cc3)Nc3ccccc3)C=CC1O2", "note": "(stereo not drawn) [Compound 643]", "SUMO": "++"}
{"smiles": "CCOc1ccc(CC(Nc2ccccc2)C23C=CC(O2)C(C(=O)OC)=C3C(=O)OC)cc1", "note": "(stereo not drawn) [Compound 644]", "SUMO": "++"}
{"smiles": "COC(=O)C1=C(C(=O)OC)C2(C(Cc3ccc(OC(F)(F)F)cc3)Nc3ccccc3)C=CC1O2", "note": "(stereo not drawn) [Compound 647]", "SUMO": "++"}
{"smiles": "COC(=O)C1=C(C(=O)OC)C2(C(Cc3ccccc3C)Nc3ccccc3)C=CC1O2", "note": "(stereo not drawn) [Compound 648]", "SUMO": "++"}
{"smiles": "COC(=O)C1=C(C(=O)OC)C2(C(Cc3ccc(Cl)nc3)Nc3ccccc3)C=CC1O2", "note": "(stereo not drawn) [Compound 649]", "SUMO": "++"}
{"smiles": "COC(=O)C1=C(C(=O)OC)C2(C(Cc3ccc(OC(C)C)cc3)Nc3ccccc3)C=CC1O2", "note": "(stereo not drawn) [Compound 650]", "SUMO": "++"}
{"smiles": "COC(=O)C1=C(C(=O)OC)C2(C(Cc3ccc(OCC(C)C)cc3)Nc3ccccc3)C=CC1O2", "note": "(stereo not drawn) [Compound 651]", "SUMO": "++"}
{"smiles": "COC(=O)C1=C(C(=O)OC)C2(C(Cc3ccc(Br)cc3)Nc3ccccc3)C=CC1O2", "note": "(stereo not drawn) [Compound 652]", "SUMO": "++"}
{"smiles": "COC(=O)C1=C(C(=O)OC)C2(C(Nc3ccccc3)c3ccc4cc(OC)ccc4c3)C=CC1O2", "note": "(stereo not drawn) [Compound 653]", "SUMO": "++"}
{"smiles": "COC(=O)C1=C(C(=O)OC)C2(C(Nc3ccccc3)c3ccc4ccc(OC)cc4c3)C=CC1O2", "note": "(stereo not drawn) [Compound 654]", "SUMO": "++"}
{"smiles": "CCc1ccc(CC(Nc2ccccc2)C23C=CC(O2)C(C(=O)OC)=C3C(=O)OC)cc1", "note": "(stereo not drawn) [Compound 655]", "SUMO": "++"}
{"smiles": "COC(=O)C1=C(C(=O)OC)C2(C(Cc3ccc(CC(C)C)cc3)Nc3ccccc3)C=CC1O2", "note": "(stereo not drawn) [Compound 656]", "SUMO": "++"}
{"smiles": "COC(=O)C1=C(C(=O)OC)C2(C(Cc3c(Cl)cccc3Cl)Nc3ccccc3)C=CC1O2", "note": "(stereo not drawn) [Compound 657]", "SUMO": "++"}
{"smiles": "COC(=O)C1=C(C(=O)OC)C2(C(Cc3ccccc3C(F)(F)F)Nc3ccccc3)C=CC1O2", "note": "(stereo not drawn) [Compound 658]", "SUMO": "++"}
{"smiles": "CCOC(=O)C1=C(C(=O)OCC)C2(C(Nc3ccccc3)c3ccc(CN4CCOCC4)cc3)C=CC1O2", "note": "(stereo not drawn) [Compound 659]", "SUMO": "++"}
{"smiles": "COC(=O)C1=C(C(=O)OC)C2(C(Cc3ccccc3C#N)Nc3ccccc3)C=CC1O2", "note": "(stereo not drawn) [Compound 660]", "SUMO": "++"}
{"smiles": "CCNC(=O)C1=C(C(=O)NCC)C2(C(Cc3ccccc3Cl)Nc3ccccc3)C=CC1O2", "note": "(stereo not drawn) [Compound 662]", "SUMO": "+"}
{"smiles": "COC(=O)C1=C(C(=O)OC)C2(C(Cc3cccc(Cl)c3)Nc3ccccc3)C=CC1O2", "note": "(stereo not drawn) [Compound 663]", "SUMO": "++"}
{"smiles": "COC(=O)C1=C(C(=O)OC)C2(C(Cc3ccc(CCO)cc3)Nc3ccccc3)C=CC1O2", "note": "(stereo not drawn) [Compound 664]", "SUMO": "++"}
{"smiles": "CNC(=O)Cc1ccc(CC(Nc2ccccc2)C23C=CC(O2)C(C(=O)OC)=C3C(=O)OC)cc1", "note": "(stereo not drawn) [Compound 665]", "SUMO": "++"}
{"smiles": "COC(=O)C1=C(C(=O)OC)C2(C(Cc3ccccc3Br)Nc3ccccc3)C=CC1O2", "note": "(stereo not drawn) [Compound 667]", "SUMO": "++"}
{"smiles": "COC(=O)C1=C(C(=O)OC)C2(C(Cc3cccnc3Cl)Nc3ccccc3)C=CC1O2", "note": "(stereo not drawn) [Compound 668]", "SUMO": "++"}
{"smiles": "CCOc1cccc(NC(Cc2ccccc2)C23C=CC(O2)C(C(=O)OC)=C3C(=O)OC)c1", "note": "(stereo not drawn) [Compound 669]", "SUMO": "++"}
{"smiles": "COC(=O)C1=C(C(=O)OC)C2(C(Cc3ccc(C(C)C)cc3)Nc3ccccc3)C=CC1O2", "note": "(stereo not drawn) [Compound 670]", "SUMO": "++"}
{"smiles": "COC(=O)C1=C(C(=O)OC)C2(C(Nc3ccccc3)c3cc4ccccc4nc3Cl)C=CC1O2", "note": "(stereo not drawn) [Compound 671]", "SUMO": "++"}
{"smiles": "COC(=O)C1=C(C(=O)OC)C2(C(Cc3ccccc3Cl)Nc3cccc(Oc4ccccc4)c3)C=CC1O2", "note": "(stereo not drawn) [Compound 672]", "SUMO": "++"}
{"smiles": "COC(=O)C1=C(C(=O)OC)C2(C(Cc3ccccc3Cl)Nc3ccc(F)cc3)C=CC1O2", "note": "(stereo not drawn) [Compound 673]", "SUMO": "++"}
{"smiles": "COC(=O)C1=C(C(=O)OC)C2(C(Cc3ccccc3Cl)Nc3cccc(OCc4ccccc4)c3)C=CC1O2", "note": "(stereo not drawn) [Compound 674]", "SUMO": "++"}
{"smiles": "COC(=O)C1=C(C(=O)OC)C2(C(Nc3ccccc3)c3ccc4nc(Cl)ccc4c3)C=CC1O2", "note": "(stereo not drawn) [Compound 675]", "SUMO": "++"}
{"smiles": "COC(=O)C1=C(C(=O)OC)C2(C(Cc3ccc(CC4CCOCC4)cc3)Nc3ccccc3)C=CC1O2", "note": "(stereo not drawn) [Compound 676]", "SUMO": "++"}
{"smiles": "COC(=O)C1=C(C(=O)OC)C2(C(Cc3ccc(-c4ccccc4)cc3)Nc3ccccc3)C=CC1O2", "note": "(stereo not drawn) [Compound 677]", "SUMO": "++"}
{"smiles": "COC(=O)C1=C(C(=O)OC)C2(C(Cc3ccccc3Cl)Nc3ccc(Oc4ccccc4)cc3)C=CC1O2", "note": "(stereo not drawn) [Compound 678]", "SUMO": "+"}
{"smiles": "COC(=O)C1=C(C(=O)OC)C2(C(Cc3ccc(C4CCOCC4)cc3)Nc3ccccc3)C=CC1O2", "note": "(stereo not drawn) [Compound 681]", "SUMO": "++"}
{"smiles": "COC(=O)C1=C(C(=O)OC)C2(C(Cc3cccc(-c4ccccc4)c3)Nc3ccccc3)C=CC1O2", "note": "(stereo not drawn) [Compound 682]", "SUMO": "+"}
{"smiles": "COC(=O)C1=C(C(=O)OC)C2(C(Cc3ccc(Nc4ccccc4)cc3)Nc3ccccc3)C=CC1O2", "note": "(stereo not drawn) [Compound 683]", "SUMO": "+"}
{"smiles": "COC(=O)C1=C(C(=O)OC)C2(C(Cc3ccc(NC(C)C)cc3)Nc3ccccc3)C=CC1O2", "note": "(stereo not drawn) [Compound 684]", "SUMO": "+"}
{"smiles": "CNc1ccc(CC(Nc2ccccc2)C23C=CC(O2)C(C(=O)OC)=C3C(=O)OC)cc1", "note": "(stereo not drawn) [Compound 685]", "SUMO": "++"}
{"smiles": "COC(=O)C1=C(C(=O)OC)C2(C(Cc3ccccc3Cl)Oc3ccccc3)C=CC1O2", "note": "(stereo not drawn) [Compound 687]", "SUMO": "+"}
{"smiles": "COC(=O)C1=C(C(=O)NCCN(C)C)C2C=CC1(C(Cc1ccccc1Cl)Nc1ccc(F)cc1)O2", "note": "(stereo not drawn) [Compound 688]", "SUMO": "+++"}
{"smiles": "COC(=O)C1=C(C(=O)OC)C2(C(Cc3ccccc3Cl)Nc3ccccc3)CCC1O2", "note": "(stereo not drawn) [Compound 689]", "SUMO": "+"}
{"smiles": "COC(=O)C1=C(C(=O)NCCN(C)C)C2CCC1(C(Cc1ccccc1Cl)Nc1ccccc1)O2", "note": "(stereo not drawn) [Compound 691]", "SUMO": "++"}
{"smiles": "COC(=O)C1=C(C(=O)Nc2ccc(C)c(F)c2)C2CCC1(C(Cc1ccccc1Cl)Nc1ccccc1)O2", "note": "(stereo not drawn) [Compound 692]", "SUMO": "+"}
{"smiles": "COC(=O)C1=C(C(=O)OC)C2(C(Cc3ccc(C4CC4)cc3)Nc3ccccc3)C=CC1O2", "note": "(stereo not drawn) [Compound 693]", "SUMO": "++"}
{"smiles": "COC(=O)C1=C(C(=O)OC)C2(C(Cc3ccccc3Cl)N[S@+]([O-])C(C)(C)C)CCC1O2", "note": "(stereo partly drawn) [Compound 694]", "SUMO": "++"}
{"smiles": "COC(=O)C1=C(C(=O)OC)C2(C(Cc3ccccc3)Nc3ccccc3)C=CC1(c1ccccc1)O2", "note": "(stereo not drawn) [Compound 696]", "SUMO": "+"}
